# Measurements reported in article PMC2992954 (Molecular bioSystems, 2009).
# pIC50: −log10 of the molar value. Counter-ions that a name gives are not always drawn.
# Biological target: Sfp-PPTase (Bacillus subtilis, UniProt P39135)
# Experiment: Rhodamine/BHQ-2 dark quench assay
# Assay type: biochemical
# Chain of Sfp-PPTase (P39135 whole entry): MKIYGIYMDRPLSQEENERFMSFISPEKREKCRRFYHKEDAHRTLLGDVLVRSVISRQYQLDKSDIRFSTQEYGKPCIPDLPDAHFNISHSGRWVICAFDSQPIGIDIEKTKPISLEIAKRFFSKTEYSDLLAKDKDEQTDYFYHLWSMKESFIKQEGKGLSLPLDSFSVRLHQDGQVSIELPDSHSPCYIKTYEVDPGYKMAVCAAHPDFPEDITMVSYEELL
smiles,measurement,value
"Nc1ncnc2c1ncn2[C@@H]1O[C@H](COP(=O)(O)O)[C@@H](OP(=O)(O)O)[C@H]1O [PAP 3, adenosine 3′, 5′-diphosphate sodium salt]",pIC50,4.84
